Measured values taken from patent publication US7202261B2, “Calcilytic compounds” (NPS Pharmaceuticals, Inc., priority 1996, dated 2007).
pEC50, pIC50: −log10 of the molar value. Structures can show the parent of a compound that is named as a salt.

Tests used:
human calcium receptor = target: T1, human calcium receptor (Homo sapiens, UniProt P41180); assay: Calcium Receptor Inhibitor Assay; assay type: cell-based; conditions: HEK 293 4.0–7 cells stably expressing the human calcium receptor; fluo-3; read-out: IC50 for blocking increases of intracellular Ca2+ elicited by extracellular Ca2+
T1 construct: expressed in transfected cells
T1 sequence (P41180 20-1078): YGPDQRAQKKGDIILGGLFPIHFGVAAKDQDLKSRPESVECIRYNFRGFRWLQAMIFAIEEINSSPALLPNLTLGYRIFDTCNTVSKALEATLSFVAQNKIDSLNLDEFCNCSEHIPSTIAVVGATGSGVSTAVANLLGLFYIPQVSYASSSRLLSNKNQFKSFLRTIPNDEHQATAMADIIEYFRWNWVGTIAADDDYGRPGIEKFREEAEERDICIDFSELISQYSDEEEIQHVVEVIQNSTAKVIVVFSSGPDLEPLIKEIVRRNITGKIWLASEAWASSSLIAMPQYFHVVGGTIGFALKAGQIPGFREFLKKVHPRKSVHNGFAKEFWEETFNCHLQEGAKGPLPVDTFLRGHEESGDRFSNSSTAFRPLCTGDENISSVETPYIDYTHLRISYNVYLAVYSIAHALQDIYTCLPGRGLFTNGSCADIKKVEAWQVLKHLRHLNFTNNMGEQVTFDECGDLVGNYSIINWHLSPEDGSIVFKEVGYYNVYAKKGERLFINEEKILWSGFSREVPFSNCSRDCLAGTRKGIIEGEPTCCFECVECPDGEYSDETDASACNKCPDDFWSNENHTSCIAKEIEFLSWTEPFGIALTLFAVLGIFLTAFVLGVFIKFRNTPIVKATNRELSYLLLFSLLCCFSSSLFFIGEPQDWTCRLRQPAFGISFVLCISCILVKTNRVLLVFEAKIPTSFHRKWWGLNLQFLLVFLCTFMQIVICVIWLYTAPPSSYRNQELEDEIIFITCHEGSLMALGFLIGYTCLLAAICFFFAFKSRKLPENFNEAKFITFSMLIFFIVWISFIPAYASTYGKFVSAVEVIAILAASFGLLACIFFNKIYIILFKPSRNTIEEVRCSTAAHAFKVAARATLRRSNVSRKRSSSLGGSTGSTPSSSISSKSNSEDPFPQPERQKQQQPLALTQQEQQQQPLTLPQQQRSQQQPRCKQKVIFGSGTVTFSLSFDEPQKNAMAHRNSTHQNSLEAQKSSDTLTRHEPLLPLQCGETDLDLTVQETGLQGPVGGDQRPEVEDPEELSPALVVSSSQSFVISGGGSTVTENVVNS
How it was run: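 Intracellular Ca^2+ measured with fluo-3 at 37° C in stirred cell suspension. Buffer held 1 mM CaCl2 and 1 mg/mL D-glucose. Compound or vehicle added 90 seconds before extracellular Ca^2+ was raised from 1 to 2 mM, and calcilytic activity scored as concentration-dependent block of the intracellular Ca^2+ rise.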

Parathyroid cells = conditions: read-out: EC50 for mobilization of intracellular calcium; cited from earlier work

| Molecule | pIC50 (human calcium receptor) | pEC50 (Parathyroid cells) |
| --- | --- | --- |
| CCCc1ccccc1OCC(O)CNC(C)(C)Cc1ccc(OC)cc1 (stereo not drawn) [Compound 148, N-[2-hydroxy-3-(2-n-propylphenoxy)propyl]-1,1-dimethyl-2-(4-methoxyphenyl)ethylamine Hydrochloride] | > 6.00 |  |
| CCCc1ccc(OCC(O)CNC(C)(C)Cc2ccc(OC)cc2)cc1 (stereo not drawn) [Compound 149, N-[2-hydroxy-3-(4-n-propylphenoxy)propyl]-1,1-dimethyl-2-(4-methoxyphenyl)ethylamine Hydrochloride] | > 6.00 |  |
| CCc1cccc(OCC(O)CNC(C)(C)Cc2ccc(OC)cc2)c1 (stereo not drawn) [Compound 150, N-[2-Hydroxy-3-(3-ethylphenoxy)propyl)-1,1-dimethyl-2-(4-methoxyphenyl)ethylamine Hydrochloride] | > 6.00 |  |
| CCc1ccccc1OCC(O)CNC(C)(C)Cc1ccc(OC)cc1 (stereo not drawn) [Compound 151, N-[2-hydroxy-3-(2-ethylphenoxy)propyl]-1,1-dimethyl-2-(4-methoxyphenyl)ethylamine Hydrochloride] | > 6.00 |  |
| COc1ccc(CC(C)(C)NCC(O)COc2ccc(OC(F)(F)F)cc2)cc1 (stereo not drawn) [Compound 152, N-[2-hydroxy-3-(4-trifluoromethoxyphenoxy)propyl)-1,1-dimethyl-2-(4-methoxyphenyl)ethylamine Hydrochloride] | > 5.00 |  |
| COc1ccc(CC(C)(C)NCC(O)COc2ccccc2C(C)C)cc1 (stereo not drawn) [Compound 153, N-[2-hydroxy-3-(2-iso-propylphenoxy)propyl]-1,1-dimethyl-2-(4-methoxyphenyl)ethylamine Hydrochloride] | > 6.00 |  |
| COc1ccc(CC(C)(C)NCC(O)COc2cccc(OC(F)(F)F)c2)cc1 (stereo not drawn) [Compound 154, N-[2-hydroxy-3-(3-trifluoromethoxyphenoxy)propyl]-1,1-dimethyl-2-(4-methoxyphenyl)ethylamine Hydrochloride] | > 6.00 |  |
| COc1ccc(CC(C)(C)NCC(O)COc2c(Cl)cccc2Cl)cc1 (stereo not drawn) [Compound 155, N-[2-hydroxy-3-(2,6-dichlorophenoxy)propyl]-1,1-dimethyl-2-(4-methoxyphenyl)ethylamine Hydrochloride] | > 5.00 |  |
| COc1ccc(CC(C)(C)NCC(O)COc2cc(C(F)(F)F)cc(C(F)(F)F)c2)cc1 (stereo not drawn) [Compound 156, N-[2-hydroxy-3-(3,5-bistrifluoromethylphenoxy)propyl]-1,1-dimethyl-2-(4-methoxyphenyl)ethylamine Hydrochloride] | > 6.00 |  |
| COc1ccc(CC(C)(C)NCC(O)COc2cc(Cl)cc(OC)c2)cc1 (stereo not drawn) [Compound 157, N-[2-hydroxy-3-(3-chloro-5-methoxyphenoxy)propyl]-1,1-dimethyl-2-(4-methoxyphenyl)ethylamine Hydrochloride] | > 6.00 |  |
| [H]/N=C(/N)N[C@H]1[C@H](O)[C@@H](O)[C@H](O[C@@H]2O[C@@H](C)[C@](O)(C=O)[C@H]2O[C@@H]2O[C@@H](CO)[C@H](O)[C@@H](O)[C@@H]2NC)[C@@H](N/C(N)=N\[H])[C@@H]1O [streptomycin] |  | 3.22 |
| gentamicin |  | 3.82 |

Now from value to molecule, other results behind:

| pIC50 (human calcium receptor) | Molecule | pEC50 (Parathyroid cells) |
| --- | --- | --- |
| > 6.00 | COc1ccc(CC(C)(C)NCC(O)COc2ccccc2[N+](=O)[O-])cc1 (stereo not drawn) [Compound 159, N-[2-hydroxy-3-(2-nitrophenoxy)propyl]-1,1-dimethyl-2-(4-methoxyphenyl)ethylamine Hydrochloride] |  |
| > 6.00 | COc1ccc(CC(C)(C)NCC(O)COc2cccc(C#N)c2)cc1 (stereo not drawn) [Compound 160, N-[2-hydroxy-3-(3-cyanophenoxy)propyl]-1,1-dimethyl-2-(4-methoxyphenyl)ethylamine Hydrochloride] |  |
| > 5.00 | COc1ccc(CC(C)(C)NCC(O)COc2ccc(C#N)cc2)cc1 (stereo not drawn) [Compound 161, N-(2-hydroxy-3-(4-cyanophenoxy)propyl]-1,1-dimethyl-2-(4-methoxyphenyl)ethylamine Hydrochloride] |  |
| > 6.00 | CCCN(CCC)S(=O)(=O)c1ccc(OC[C@H](O)CNC(C)(C)Cc2ccc(OC)cc2)c(Cl)c1Cl [Compound 165, N-[2(R)-Hydroxy-3-[(2,3-dichloro-4-dipropylsulfamoyl)phenoxyl-1-propyl]-N-[1,1-dimethyl-2-(4-methoxyphenyl)ethyl]amine hydrochloride salt] |  |
| > 6.00 | CC(C)(Cc1ccc(Cl)c(Cl)c1)NC[C@@H](O)COc1c(C#N)sc2ccccc12 [Compound 166] |  |
| > 6.00 | COc1ccc(CC(C)(C)NC[C@@H](O)COc2ccc3c(c2)[nH]c2ccccc23)cc1 [Compound 167] |  |
